Experiments:
[1] = test system: Nrf2; experiment: Nrf2 antagonism assay: ARE luciferase reporter in KYSE-70 cells; format: cell-based; details: Homo sapiens, KYSE-70, KYSE-70 cells, positive Imax corresponds to Nrf2 antagonism, read-out: KYSE70 Cellular ARE Luciferase Imax (%)
How it was run: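 Dose-response curves give IC50 and Imax, with positive Imax read as Nrf2 antagonism, i.e. reduced luciferase signal. Reporter cells are Nrf2-high KYSE-70 (Nrf2 W24C mutant) bearing ARE-controlled luciferase. Antagonists are proposed to act at KEAP1 C151, speeding Nrf2 degradation.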

[2] = target: T1, KEAP1 C151 (Homo sapiens, UniProt Q14145); experiment: Nrf2 TMT measurement: in vitro TE50 for KEAP1 C151 (IA-DTB competition, targeted TMT mass spectrometry) in MDA-MB-468 cell lysate; format: binding; details: in vitro target engagement of KEAP1 C151, targeted TMT, read-out: KEAP1_C151 TE50
T1 construct: treating 500 μg of cell lysate generated from MDA-MB-468 breast cancer cells with DMSO or compound; endogenous in cells; host or cells: MDA-MB-468 breast cancer cell lysate
T1 sequence (Q14145 whole entry): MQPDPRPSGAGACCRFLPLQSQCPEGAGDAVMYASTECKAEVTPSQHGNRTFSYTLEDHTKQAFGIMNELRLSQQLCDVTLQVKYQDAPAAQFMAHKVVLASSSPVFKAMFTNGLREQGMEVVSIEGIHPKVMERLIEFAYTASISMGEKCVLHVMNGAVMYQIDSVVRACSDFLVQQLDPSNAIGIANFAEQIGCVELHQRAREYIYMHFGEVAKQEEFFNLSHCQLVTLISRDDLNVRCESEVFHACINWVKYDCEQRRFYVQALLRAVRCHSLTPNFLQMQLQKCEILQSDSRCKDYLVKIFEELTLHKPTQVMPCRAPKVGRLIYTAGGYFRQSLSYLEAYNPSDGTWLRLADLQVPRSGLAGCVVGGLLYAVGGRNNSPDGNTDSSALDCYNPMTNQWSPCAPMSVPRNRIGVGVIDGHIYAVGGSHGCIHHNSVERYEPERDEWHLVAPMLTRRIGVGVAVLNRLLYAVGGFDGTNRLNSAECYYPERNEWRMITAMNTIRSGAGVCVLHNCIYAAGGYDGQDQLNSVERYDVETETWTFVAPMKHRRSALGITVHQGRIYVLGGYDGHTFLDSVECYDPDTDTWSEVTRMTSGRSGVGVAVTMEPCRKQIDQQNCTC
How it was run: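 Occupancy of KEAP1 C151 measured as loss of IA-DTB labeling (200 μM, 1 h, room temperature) after 1 h compound pre-treatment of MDA-MB-468 cell lysate.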

## C=CC(=O)N1CCOCC1c1cc(Cl)cc(-c2cc(=O)[nH]cn2)c1 (single isomer, unassigned) [Compound 94, 6-(3-(4-acryloylmorpholin-3-yl)-5-chlorophenyl)pyrimidin-4(3H)-one]
[1]
  Emax: 87%
[2]
  IC50: 16 nM

## C=CC(=O)N1CCOC[C@H]1c1cc(Cl)cc(-c2nc(C)cc(N)n2)c1 (single isomer, unassigned) [Compound 95]
[1]
  Emax: 94%
[2]
  IC50: 25 nM

## C=CC(=O)N1CCOC[C@H]1c1cc(Cl)cc(-c2nccc(N)n2)c1 (single isomer, unassigned) [Compound 96]
[1]
  Emax: 94%
[2]
  IC50: 20 nM

## C=CC(=O)N1CCOC[C@H]1c1cc(Cl)cc(-c2ccnc3[nH]ccc23)c1 (single isomer, unassigned) [Compound 97]
[1]
  Emax: 86%
[2]
  IC50: 23 nM

## C=CC(=O)N1CCOC[C@H]1c1cc(Cl)cc(-c2cccc(C)n2)c1 (single isomer, unassigned) [Compound 98]
[1]
  Emax: 76%
[2]
  IC50: 26 nM

## C=CC(=O)N1CCOC[C@H]1c1cc(Cl)cc(-c2cccc(OC)n2)c1 (single isomer, unassigned) [Compound 100]
[1]
  Emax: 78%
[2]
  IC50: 140 nM

## C=CC(=O)N1CCOC[C@H]1c1cc(Cl)cc(-c2ncc(C)cn2)c1 (single isomer, unassigned) [Compound 101]
[1]
  Emax: 87%
[2]
  IC50: 24 nM

## C=CC(=O)N1[C@H](C)COC[C@H]1c1cc(Cl)cc(-c2ncnc(N)n2)c1 (single isomer, unassigned) [Compound 102]
[1]
  Emax: 92%
[2]
  IC50: 43.2 nM

## C=CC(=O)N1CCOC[C@H]1c1cc(Cl)cc(-c2ncc(OC)cn2)c1 (single isomer, unassigned) [Compound 103]
[1]
  Emax: 85%
[2]
  IC50: 17 nM

## C=CC(=O)N1CCOC[C@H]1c1cc(Cl)cc(-c2cc(C)ccn2)c1 (single isomer, unassigned) [Compound 104]
[1]
  Emax: 91%
[2]
  IC50: 45 nM

## C=CC(=O)N1CCOC[C@H]1c1cc(Cl)cc(-c2cc(OC)ccn2)c1 (single isomer, unassigned) [Compound 105]
[1]
  Emax: 92%
[2]
  IC50: 36 nM

## C=CC(=O)N1CCOC[C@H]1c1cc(Cl)cc(-c2ccnc(C#N)n2)c1 (single isomer, unassigned) [Compound 106]
[1]
  Emax: 67%
[2]
  IC50: 37 nM

## C=CC(=O)N1CCOCC1c1cc(Cl)cc(-c2cc(C(N)=O)ncn2)c1 (single isomer, unassigned) [Compound 107, 6-(3-(4-acryloylmorpholin-3-yl)-5-chlorophenyl)pyrimidine-4-carboxamide]
[1]
  Emax: 92%
[2]
  IC50: 18 nM

## C=CC(=O)N1CC(C)(C)OCC1c1cc(Cl)nc(-c2ccnc(C)n2)c1 (single isomer, unassigned) [Compound 120, 1-(5-(2-chloro-6-(2-methylpyrimidin-4-yl)pyridin-4-yl)-2,2-dimethylmorpholino)prop-2-en-1-one]
[1]
  Emax: 77%
[2]
  IC50: 110 nM

## C=CC(=O)N1CCOCC1c1cc(Cl)nc(-c2ccnc(C)n2)c1 (single isomer, unassigned) [Compound 121, 1-(3-(2-chloro-6-(2-methylpyrimidin-4-yl)pyridin-4-yl)morpholino)prop-2-en-1-one]
[1]
  Emax: 82%
[2]
  IC50: 26 nM

## C=CC(=O)N1CC2(CC2)OCC1c1cc(Cl)cc(-c2ccnc(C(N)=O)c2)c1 (single isomer, unassigned) [Compound 122, 4-(3-(7-acryloyl-4-oxa-7-azaspiro[2.5]octan-6-yl)-5-chlorophenyl)picolinamide]
[1]
  Emax: 88%
[2]
  IC50: 11 nM

## C=CC(=O)N1CCN(S(C)(=O)=O)C[C@H]1c1cc(Cl)cc(-c2ncnc(N)n2)c1 (single isomer, unassigned) [Compound 123]
[1]
  Emax: 73%
[2]
  IC50: 13 nM

## C=CC(=O)N1CCN(S(C)(=O)=O)C[C@H]1c1cc(Cl)cc(-c2ccnc(N)n2)c1 (single isomer, unassigned) [Compound 124]
[1]
  Emax: 72%
[2]
  IC50: 18 nM

## C=CC(=O)N1CCOCC1c1cc(Cl)nc(-c2cc(C(N)=O)ncn2)c1 (single isomer, unassigned) [Compound 125, 6-(4-(4-acryloylmorpholin-3-yl)-6-chloropyridin-2-yl)pyrimidine-4-carboxamide]
[1]
  Emax: 91%
[2]
  IC50: < 6.4 nM

## C=CC(=O)N1CCOC[C@H]1c1cc(Cl)cc(-c2ccncc2)c1 (single isomer, unassigned) [Compound 126]
[1]
  Emax: 72%
[2]
  IC50: 50 nM

## C=CC(=O)N1CCOC[C@H]1c1cc(Cl)cc(-c2ccc(N)nn2)c1 (single isomer, unassigned) [Compound 128]
[1]
  Emax: 70%
[2]
  IC50: 120 nM

## C=CC(=O)N1CCOCC1c1cc(Cl)nc(-c2cc(C#N)ncn2)c1 (single isomer, unassigned) [Compound 129, 6-(4-(4-acryloylmorpholin-3-yl)-6-chloropyridin-2-yl)pyrimidine-4-carbonitrile]
[1]
  Emax: 84%
[2]
  IC50: 79 nM

## C=CC(=O)N1[C@H](C)COC[C@H]1c1cc(Cl)cc(-c2ncc(N)cn2)c1 (single isomer, unassigned) [Compound 130]
[1]
  Emax: 89%
[2]
  IC50: 94 nM

## C=CC(=O)N1[C@H](C)COC[C@H]1c1cc(Cl)cc(-c2cc(N)ncn2)c1 (single isomer, unassigned) [Compound 131]
[1]
  Emax: 91%
[2]
  IC50: 300 nM

## C=CC(=O)N1CCOC[C@H]1c1cc(Cl)cc(-c2cc(N)cnn2)c1 (single isomer, unassigned) [Compound 132]
[1]
  Emax: 78%
[2]
  IC50: < 6.4 nM

## C=CC(=O)N1CC(C)(C)OC[C@H]1c1cc(Cl)cc(-c2ccnc(C(N)=O)c2)c1 (single isomer, unassigned) [Compound 133]
[1]
  Emax: 85%
[2]
  IC50: 72 nM

## C=CC(=O)N1[C@H](C)COC[C@H]1c1cc(Cl)cc(-c2ccnc(C(N)=O)c2)c1 (single isomer, unassigned) [Compound 134]
[1]
  Emax: 85%
[2]
  IC50: 63 nM

## C=CC(=O)N1CCOC[C@H]1c1cc(Cl)cc(-c2ccnc(N)c2)c1 (single isomer, unassigned) [Compound 136]
[1]
  Emax: 81%
[2]
  IC50: 52 nM

## C=CC(=O)N1[C@H](C)COC[C@H]1c1cc(Cl)cc(-c2ncnc3[nH]cnc23)c1 (single isomer, unassigned) [Compound 137]
[1]
  Emax: 92%
[2]
  IC50: 25 nM

## C=CC(=O)N1[C@H](C)COC[C@H]1c1cc(Cl)nc(-c2ccn3ccnc3c2)c1 (single isomer, unassigned) [Compound 138]
[1]
  Emax: 75%
[2]
  IC50: 41 nM

## C=CC(=O)N1[C@H](C)COC[C@H]1c1cc(Cl)nc(-c2ccc(F)c(C(N)=O)c2)c1 (single isomer, unassigned) [Compound 139]
[1]
  Emax: 90%
[2]
  IC50: 74 nM

## C=CC(=O)N1CCOCC12COc1c(-c3ccc(F)c(C(N)=O)c3)cc(Cl)cc12 (single isomer, unassigned) [Compound 143, 5-(4′-acryloyl-5-chloro-2H-spiro[benzofuran-3,3′-morpholin]-7-yl)-2-fluorobenzamide]
[1]
  Emax: 56%
[2]
  IC50: 770 nM

## C=CC(=O)N1[C@H](C)COC[C@H]1c1cc(Cl)nc(-c2ccnc(N)n2)c1 (single isomer, unassigned) [Compound 144]
[1]
  Emax: 86%
[2]
  IC50: 83 nM

## C=CC(=O)N1[C@H](C)COC[C@H]1c1cc(Cl)nc(-c2ccnc(C(N)=O)c2)c1 (single isomer, unassigned) [Compound 145]
[1]
  Emax: 90%
[2]
  IC50: 11 nM

## C=CC(=O)N1CCOC[C@H]1c1cc(Cl)cc(-c2ncncn2)c1 (single isomer, unassigned) [Compound 147]
[1]
  Emax: 74%
[2]
  IC50: 180 nM

## C=CC(=O)N1CC(C)(C)OC[C@H]1c1cc(Cl)cc(-c2ccnc(N)n2)c1 (single isomer, unassigned) [Compound 148]
[1]
  Emax: 93%
[2]
  IC50: 51 nM

## C=CC(=O)N1CC(C)(C)OC[C@H]1c1cc(Cl)cc(-c2cc(N)ncn2)c1 (single isomer, unassigned) [Compound 149]
[1]
  Emax: 95%
[2]
  IC50: 15 nM

## C=CC(=O)N1CC(C)(C)OCC1c1cc(Cl)nc(-c2cc(N)ncn2)c1 (single isomer, unassigned) [Compound 150, 1-(5-(2-(6-aminopyrimidin-4-yl)-6-chloropyridin-4-yl)-2,2-dimethylmorpholino)prop-2-en-1-one]
[1]
  Emax: 97%
[2]
  IC50: 31 nM

## C=CC(=O)N1CC(C)(C)OC[C@H]1c1cc(Cl)cc(-c2nccc(N)n2)c1 (single isomer, unassigned) [Compound 155]
[1]
  Emax: 94%
[2]
  IC50: 67 nM

## C=CC(=O)N1CC(C)(C)OC[C@H]1c1cc(Cl)cc(-c2ncc(N)cn2)c1 (single isomer, unassigned) [Compound 156]
[1]
  Emax: 94%
[2]
  IC50: 105 nM

## C=CC(=O)N1[C@H](CO)COC[C@H]1c1cc(Cl)nc(-c2ccn3ccnc3c2)c1 (single isomer, unassigned) [Compound 157]
[1]
  Emax: 81%
[2]
  IC50: 12 nM

## C=CC(=O)N1CCOCC12COc1c(-c3ccnc(N)n3)cc(Cl)cc12 (single isomer, unassigned) [Compound 158, 1-(7-(2-aminopyrimidin-4-yl)-5-chloro-2H-spiro[benzofuran-3,3′-morpholino]-4′-yl)prop-2-en-1-one]
[1]
  Emax: 71%
[2]
  IC50: 2720 nM

## C=CC(=O)N1CC2(COC2)C1c1cc(Cl)cc(-c2ncnc(N)n2)c1 (single isomer, unassigned) [Compound 159, 1-(5-(3-(4-amino-1,3,5-triazin-2-yl)-5-chlorophenyl)-2-oxa-6-azaspiro[3,3]heptan-6-yl)prop-2-en-1-one]
[1]
  Emax: 63%
[2]
  IC50: 320 nM
